In patent publication US20100144727A1, “Oxazolidine and Morpholine Carboxamide Derivatives as P2X7 Modulators” (priority 2007, published 2010):

Target: T1, human P2X7 receptor (Homo sapiens, UniProt Q99572)
T1 construct: expressed in transfected cells; host or cells: HEK293
T1 sequence (Q99572 1-595): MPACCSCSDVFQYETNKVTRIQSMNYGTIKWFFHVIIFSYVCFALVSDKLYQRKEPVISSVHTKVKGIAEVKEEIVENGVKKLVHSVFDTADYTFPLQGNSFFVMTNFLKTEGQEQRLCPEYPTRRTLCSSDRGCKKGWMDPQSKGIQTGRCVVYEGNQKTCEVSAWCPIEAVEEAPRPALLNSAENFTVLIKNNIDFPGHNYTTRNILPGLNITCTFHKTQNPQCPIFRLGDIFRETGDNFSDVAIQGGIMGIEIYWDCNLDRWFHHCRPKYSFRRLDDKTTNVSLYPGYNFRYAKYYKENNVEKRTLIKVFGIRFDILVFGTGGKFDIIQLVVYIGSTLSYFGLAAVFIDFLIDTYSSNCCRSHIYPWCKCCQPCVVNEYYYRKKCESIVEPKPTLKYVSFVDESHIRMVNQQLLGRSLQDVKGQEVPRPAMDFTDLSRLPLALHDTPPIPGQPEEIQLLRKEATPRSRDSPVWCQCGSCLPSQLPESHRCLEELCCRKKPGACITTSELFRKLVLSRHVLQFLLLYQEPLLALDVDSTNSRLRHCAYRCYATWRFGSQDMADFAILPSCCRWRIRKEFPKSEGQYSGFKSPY
Assay: Ethidium Accumulation Assay
Format: cell-based
Conditions: HEK293 cells expressing human recombinant P2X7 receptors; 1 mM ATP; ethidium 100 μM; read-out: pIC50 in the Ethidium Accumulation Assay (antagonist, blocking ATP responses) (converted)
Protocol: Studies were performed using NaCl assay buffer of the following composition (in mM): 140 mM NaCl, HEPES 10, N-methyl-D-glucamine 5, KCl 5.6, D-glucose 10, CaCl2 0.5 (pH 7.4). HEK293 cells, expressing human recombinant P2X7 receptors, were grown in poly-L-lysine pretreated 96 well plates for 18-24 h. […] The cells were washed twice with 350 μl of assay buffer before addition of 50 μl of antagonist. The cells were then incubated at room temperature (19-21° C.) for 30 min before addition of ATP and ethidium (100 μM final assay concentration). The ATP concentration was chosen to be close to the EC80 for the receptor type and was 1 mM for studies on the human P2X7 receptor. Incubations were continued for 8 or 16 min and were terminated by addition of 25 μl of 1.3M sucrose containing 5 mM of the P2X7 receptor antagonist reactive black 5 (Aldrich). Cellular accumulation of ethidium was determined by measuring fluorescence (excitation wavelength of 530 nm and emission wavelength of 620 nm) from below the plate with a Canberra Packard Fluorocount (Pangbourne, UK). Antagonist pIC50 values for blocking ATP responses were determined using iterative curve fitting techniques.

IC50, ≤ 0.1 µM:
CCN1C(=O)OC[C@H]1C(=O)NCc1ccc(F)cc1Cl [Example E1, N-[(2-chloro-4-fluorophenyl)methyl]-3-ethyl-2-oxo-1,3-oxazolidine-4-carboxamide]
CN1C(=O)OCC1C(=O)NCc1cccc(C(F)(F)F)c1Cl (stereo not shown) [Example E3, N-{[2-chloro-3-(trifluoromethyl)phenyl]methyl}-3-methyl-2-oxo-1,3-oxazolidine-4-carboxamide]
CN1C(=O)OC[C@H]1C(=O)NCc1cccc(C(F)(F)F)c1Cl [Example E4, N-{[2-chloro-3-(trifluoromethyl)phenyl]methyl}-3-methyl-2-oxo-1,3-oxazolidine-4-carboxamide]
CN1C(=O)COCC1C(=O)NCc1cccc(C(F)(F)F)c1Cl (stereo not shown) [Example E10, N-{[2-chloro-3-(trifluoromethyl)phenyl]methyl}-4-methyl-5-oxo-3-morpholinecarboxamide]
